According to patent US7476691B2, “Sulfamate benzothiophene derivatives as steroid sulfatase inhibitors” (Laboratoire Theramex, priority 2003, dated 2009):

Assays:
[1] = tested on: ovariectomized Wistar female rats; assay: Antiuterotrophic/antisulfatase activity: inhibition of E1S stimulated uterus weight; assay type: in vivo, rat
Description: A short model, derived from Purohit's method, was developed for the evaluation in vivo of nonestrogenic steroid sulfatase inhibitors.
Wistar female rats were ovariectomized and left to rest for 4 weeks. Prior to treatment, the absence of cyclicity was checked by vaginal smears.
Animals were supplemented with estrone sulfate (E1S) at 50 μg/kg/day s.c., alone or combined with oral administration of potential sulfatase inhibitors, at 1 mg/kg/day for 4 days. The uteri were removed, freed of adjacent tissue and wet weighed.
The results are expressed as % of inhibition of the E1S induced stimulation.
The activity of Ex 55 on E1S stimulated uterus weight was evaluated in relation to the standard inhibitor 6,6,7 COUMATE from 0.03 mg/kg/day to 1 mg/kg/day p.o.
(§1) In this study, a last administration was performed 24 hours before the necropsy for E1S and E2 serum levels assays. The uteri were removed, freed of adjacent tissue, wet weighed and immediately deep frozen until the determination of sulfatase activity.

estrone sulfatase = target: T1, estrone sulfatase (Rattus norvegicus, UniProt P15589); assay: Estrone sulfatase activity in the uterus of treated rats; assay type: in vivo
T1 construct: uteri were thawed, weighed and homogenized; from tissue; host or cells: uterus of animals dosed orally (ex vivo homogenate supernatant)
T1 sequence (P15589 20-577): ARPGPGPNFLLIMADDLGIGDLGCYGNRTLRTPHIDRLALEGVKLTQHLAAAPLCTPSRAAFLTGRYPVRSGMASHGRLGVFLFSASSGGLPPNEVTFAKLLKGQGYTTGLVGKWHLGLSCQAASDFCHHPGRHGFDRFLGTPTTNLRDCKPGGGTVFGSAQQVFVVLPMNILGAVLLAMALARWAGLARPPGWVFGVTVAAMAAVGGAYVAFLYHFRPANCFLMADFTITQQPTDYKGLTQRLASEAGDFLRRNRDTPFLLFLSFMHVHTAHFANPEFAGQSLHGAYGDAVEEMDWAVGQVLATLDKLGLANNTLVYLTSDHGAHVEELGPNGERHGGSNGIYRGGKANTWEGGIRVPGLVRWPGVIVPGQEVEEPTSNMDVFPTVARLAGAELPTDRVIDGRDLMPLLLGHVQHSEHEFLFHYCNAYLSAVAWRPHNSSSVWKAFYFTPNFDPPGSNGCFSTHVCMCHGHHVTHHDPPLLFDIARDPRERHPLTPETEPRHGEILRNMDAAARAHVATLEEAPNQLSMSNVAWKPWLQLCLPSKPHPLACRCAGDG
Description: as §1
Estrone sulfatase activity was measured according to the method described by Purohit et al., with slight modifications. Briefly, uteri were thawed, weighed and homogenized. Aliquots of the supernatant were treated with dextran-coated charcoal and assayed for sulfatase. E1S activity was assessed after 30 min of incubation with 5 nM of ^3H-E1S and 20 μM of unlabelled E1S as substrate. Radioactivity was measured by LSC.
Estrone sulfatase activity was expressed as pmol/h/mg protein and reported as percentage of inhibition versus E1S.

prepubescent female rats = assay: Residual estrogenic activity in vivo (uterotrophic assay)
Description: These compounds were checked for residual estrogenic activity in vivo in the classical uterotrophic assay after 3-day administration by oral route in prepubescent female rats.
Prepubescent female rats were orally treated at 1 mg/rat/day for 3 days. On the day following the last treatment, uteri were removed and wet weight were recorded.
The results are expressed as % of stimulation of uterus weight in comparison with controls.

With NS(=O)(=O)Oc1ccc2c(c1)S(=O)(=O)C(CC1CCCCCC1)=C2 [Ex 55, Sulfamic acid, 2-cycloheptylmethyl-benzothiophene-6-yl-1,1-dioxide ester] the “Inhibition of E1S stimulated uterus weight” value ([1]; 0.03 mg/kg/day p.o.) was 0%, the “Inhibition of E1S stimulated uterus weight” value ([1]; 0.1 mg/kg/day p.o.) was 0% and the “Inhibition of E1S stimulated uterus weight” value ([1]; 0.3 mg/kg/day p.o.) was 36%. For the same compound, the “Inhibition of E1S stimulated uterus weight” value ([1]; 1 mg/kg/day p.o.) was 72%, the “% inhibition of the E1S induced stimulation (uterus weight)” value ([1]; ovariectomized rats, E1S 50 μg/kg/day s.c., compound oral 1 mg/kg/day for 4 days) was 81% and the “inhibition of E1S stimulated uterus weight (in words)” value ([1]; summary of the antiuterotrophic assay) was “significant inhibition”. The “Estrone sulfatase activity in the uterus, percentage of inhibition versus E1S” value (estrone sulfatase; 0.03 mg/kg/day p.o.) was 19%, the “Estrone sulfatase activity in the uterus, percentage of inhibition versus E1S” value (estrone sulfatase; 0.1 mg/kg/day p.o.) was 64% and the “Estrone sulfatase activity in the uterus, percentage of inhibition versus E1S” value (estrone sulfatase; 0.3 mg/kg/day p.o.) was 96%. For the same compound, the “Estrone sulfatase activity in the uterus, percentage of inhibition versus E1S” value (estrone sulfatase; 1 mg/kg/day p.o.) was 97%, the “% stimulation of uterus weight in comparison with controls” value (prepubescent female rats; prepubescent female rats, oral, 1 mg/rat/day for 3 days) was 3% and the “estrogenicity (in words)” value (prepubescent female rats; summary of the uterotrophic assay) was “lack of estrogenicity”.
